From patent publication US20070128217A1 (priority 2003, published 2007)

Assays:
[1] = test system: antibodies in sera from SARS patients (sera 1a, 1b, 2, 6, 37, 62, London, SARS-yellow, SARS-green); type: binding, human; parameters: Binding of serum 6 to linear peptides of protein X1 of SARS-CoV Urbani / Binding of serum 37 to linear peptides of protein X1 of SARS-CoV Urbani / Binding of serum 6 to looped/cyclic peptide (PEPSCAN-ELISA) / Binding of serum 37 to looped/cyclic peptide (PEPSCAN-ELISA) / Binding of serum 37 to looped/cyclic peptides of protein X1 of SARS-CoV Urbani / Binding of serum 6 to linear peptides of protein X2 / Binding of serum 37 to linear peptides of protein X2 / Binding of serum 37 to looped/cyclic peptides of protein X2 of SARS-CoV Urbani / Binding of serum 6 to linear peptides of protein M of SARS-CoV Urbani / Binding of serum 37 to linear peptides of protein M of SARS-CoV Urbani / Binding of serum 6 to looped/cyclic peptides of protein M of SARS-CoV Urbani / Binding of serum 37 to looped/cyclic peptides of protein M of SARS-CoV Urbani / Binding of serum 6 to linear peptides of protein X3 of SARS-CoV Urbani / Binding of serum 37 to linear peptides of protein X3 of SARS-CoV Urbani / Binding of serum 37 to looped/cyclic peptides of protein X3 of SARS-CoV Urbani / Binding of serum 6 to linear peptides of protein X4 of SARS-CoV Urbani / Binding of serum 37 to linear peptides of protein X4 of SARS-CoV Urbani / Binding of serum 37 to looped/cyclic peptides of protein X4 of SARS-CoV Urbani / Binding of serum 6 to linear peptides of protein X5 of SARS-CoV Urbani / Binding of serum 37 to linear peptides of protein X5 of SARS-CoV Urbani / Binding of serum 37 to looped/cyclic peptides of protein X5 of SARS-CoV Urbani / Binding of serum 6 to linear peptides of protein N of SARS-CoV Urbani / Binding of serum 37 to linear peptides of protein N of SARS-CoV Urbani / Binding of serum 6 to linear peptide (PEPSCAN-ELISA) / Binding of serum 1a to looped/cyclic peptides of protein N of SARS-CoV Urbani / Binding of serum 1b to looped/cyclic peptides of protein N of SARS-CoV Urbani / Binding of serum 2 to looped/cyclic peptides of protein N of SARS-CoV Urbani / Binding of serum 6 to looped/cyclic peptides of protein N of SARS-CoV Urbani / Binding of serum 37 to looped/cyclic peptides of protein N of SARS-CoV Urbani / Binding of serum 62 to looped/cyclic peptides of protein N of SARS-CoV Urbani / Binding of serum London to looped/cyclic peptides of protein N of SARS-CoV Urbani / Binding of serum SARS-green to looped/cyclic peptides of protein N of SARS-CoV Urbani: unit not given here
[2] = test system: control sera (pooled serum of ten healthy LUMC hospital workers; commercial negative donor pooled serum from the Dutch bloodbank); type: binding, human; parameters: Binding of Control serum LUMC to linear peptides / Binding of Control serum Blood-bank to linear peptides / Binding of Control serum LUMC to looped peptides / Binding of Control Serum Blood-Bank to Looped peptides / Binding of Control serum LUMC to linear peptides of the protein M of SARS-CoV Urbani / Binding of Control serum Blood-bank to linear peptides of the protein M of SARS-CoV Urbani / Binding of Control serum LUMC to looped peptides of the protein M of SARS-CoV Urbani / Binding of Control Serum Blood-Bank to Looped peptides of the protein M of SARS-CoV Urbani: unit not given here
[3] = test system: rabbit serum obtained by immunizing a rabbit with the SARS-CoV strain Frankfurt 1; type: binding; parameters: Binding of a rabbit serum to linear peptides / Binding of a rabbit serum to looped peptides / Rabbit serum linear peptides / Rabbit serum looped peptides / Binding of a rabbit serum to linear peptides of protein N of SARS-CoV Urbani (Rabbit serum linear peptides) / Binding of a rabbit serum to looped/cyclic peptides of protein N of SARS-CoV Urbani (Rabbit serum looped peptides): unit not given here

| Sequence | Binding of Control Serum Blood-Bank to Looped peptides [2] | Binding of Control serum Blood-bank to linear peptides [2] | Binding of Control serum LUMC to linear peptides [2] | Binding of Control serum LUMC to looped peptides [2] | Binding of a rabbit serum to linear peptides [3] | Binding of a rabbit serum to looped peptides [3] | Binding of serum 1a to linear peptides of protein X5 of SARS-CoV Urbani [1] | Binding of serum 1a to looped/cyclic peptides of protein X5 of SARS-CoV Urbani [1] | Binding of serum 1b to linear peptides of protein X5 of SARS-CoV Urbani [1] | Binding of serum 1b to looped/cyclic peptides of protein X5 of SARS-CoV Urbani [1] | Binding of serum 2 to linear peptides of protein X5 of SARS-CoV Urbani [1] | Binding of serum 2 to looped/cyclic peptides of protein X5 of SARS-CoV Urbani [1] | Binding of serum 6 to linear peptides of protein X5 of SARS-CoV Urbani [1] | Binding of serum 6 to looped/cyclic peptides of protein X5 of SARS-CoV Urbani [1] | Binding of serum 37 to linear peptides of protein X5 of SARS-CoV Urbani [1] | Binding of serum 37 to looped/cyclic peptides of protein X5 of SARS-CoV Urbani [1] | Binding of serum 62 to linear peptides of protein X5 of SARS-CoV Urbani [1] | Binding of serum 62 to looped/cyclic peptides of protein X5 of SARS-CoV Urbani [1] | Binding of serum London to linear peptides of protein X5 of SARS-CoV Urbani [1] | Binding of serum London to looped/cyclic peptides of protein X5 of SARS-CoV Urbani [1] | further results |
| --- | --- | --- | --- | --- | --- | --- | --- | --- | --- | --- | --- | --- | --- | --- | --- | --- | --- | --- | --- | --- | --- |
| CLCKHKKVSTNLCTH | 0.4 | 1.0 | 0.9 | 0.3 | 0.4 | 0.4 | – | – | – | – | – | – | – | – | – | – | – | – | – | – | Binding of serum 1a to looped/cyclic peptides of protein X2 of SARS-CoV Urbani [1]: 0.3; Binding of serum 1b to looped/cyclic peptides of protein X2 of SARS-CoV Urbani [1]: 0.3; Binding of serum 2 to looped/cyclic peptides of protein X2 of SARS-CoV Urbani [1]: 0.3; Binding of serum 6 to looped/cyclic peptides of protein X2 of SARS-CoV Urbani [1]: 0.3; Binding of serum 37 to looped/cyclic peptides of protein X2 of SARS-CoV Urbani [1]: 0.4; Binding of serum 62 to looped/cyclic peptides of protein X2 of SARS-CoV Urbani [1]: 0.5; Binding of serum London to looped/cyclic peptides of protein X2 of SARS-CoV Urbani [1]: 0.2; Binding of serum SARS-green to looped/cyclic peptides of protein X2 of SARS-CoV Urbani [1]: 0.3; Binding of serum SARS-yellow to looped/cyclic peptides of protein X2 of SARS-CoV Urbani [1]: 0.4; Recognition of the peptide by sera of SARS-CoV infected individuals, and form (linear, looped/cyclic) in which it is recognized [1]: recognized in linear form |
| CLKILVRYNTRGNTY | 0.4 | 0.8 | 0.4 | 0.6 | – | – | 0.7 | 0.5 | 0.7 | 0.2 | 0.8 | 0.5 | 0.8 | 0.4 | 0.7 | 0.5 | 0.8 | 0.7 | 0.7 | 0.2 | Binding of serum SARS-green to linear peptides of protein X5 of SARS-CoV Urbani [1]: 0.7; Binding of serum SARS-green to looped/cyclic peptides of protein X5 of SARS-CoV Urbani [1]: 0.4; Binding of serum SARS-yellow to linear peptides of protein X5 of SARS-CoV Urbani [1]: 0.3; Binding of serum SARS-yellow to looped/cyclic peptides of protein X5 of SARS-CoV Urbani [1]: 0.8; Rabbit serum linear peptides [3]: 1.1; Rabbit serum looped peptides [3]: 0.2 |
| CNLLLLFVTIYSHLL | 0.5 | 0.4 | 0.4 | 0.5 | 0.1 | 0.6 | – | – | – | – | – | – | – | – | – | – | – | – | – | – | Binding of serum 1a to linear peptides of protein X1 of SARS-CoV Urbani [1]: 0.7; Binding of serum 1a to looped/cyclic peptide (PEPSCAN-ELISA) [1]: 0.5; Binding of serum 1b to linear peptides of protein X1 of SARS-CoV Urbani [1]: 0.5; Binding of serum 1b to looped/cyclic peptide (PEPSCAN-ELISA) [1]: 0.4; Binding of serum 2 to linear peptides of protein X1 of SARS-CoV Urbani [1]: 0.5; Binding of serum 2 to looped/cyclic peptide (PEPSCAN-ELISA) [1]: 0.4; Binding of serum 6 to linear peptides of protein X1 of SARS-CoV Urbani [1]: 0.4; Binding of serum 6 to looped/cyclic peptide (PEPSCAN-ELISA) [1]: 0.3; Binding of serum 37 to linear peptides of protein X1 of SARS-CoV Urbani [1]: 0.6; Binding of serum 37 to looped/cyclic peptide (PEPSCAN-ELISA) [1]: 0.5; Binding of serum 62 to linear peptides of protein X1 of SARS-CoV Urbani [1]: 0.4; Binding of serum 62 to looped/cyclic peptide (PEPSCAN-ELISA) [1]: 0.5; Binding of serum London to linear peptides of protein X1 of SARS-CoV Urbani [1]: 0.2; Binding of serum London to looped/cyclic peptide (PEPSCAN-ELISA) [1]: 0.2; Binding of serum SARS-green to linear peptides of protein X1 of SARS-CoV Urbani [1]: 0.1; Binding of serum SARS-green to looped/cyclic peptide (PEPSCAN-ELISA) [1]: 0.2; Binding of serum SARS-yellow to linear peptides of protein X1 of SARS-CoV Urbani [1]: 0.4; Binding of serum SARS-yellow to looped/cyclic peptide (PEPSCAN-ELISA) [1]: 0.4 |
| CTPNVTINCQDPAGG | 0.4 | 0.7 | 0.3 | 0.4 | – | – | 1.0 | 0.6 | 0.8 | 0.8 | 0.6 | 0.3 | 0.6 | 0.3 | 0.7 | 0.4 | 0.7 | 0.3 | 0.8 | 0.2 | Binding of serum SARS-green to linear peptides of protein X5 of SARS-CoV Urbani [1]: 0.5; Binding of serum SARS-green to looped/cyclic peptides of protein X5 of SARS-CoV Urbani [1]: 0.4; Binding of serum SARS-yellow to linear peptides of protein X5 of SARS-CoV Urbani [1]: 0.0; Binding of serum SARS-yellow to looped/cyclic peptides of protein X5 of SARS-CoV Urbani [1]: 0.4; Rabbit serum linear peptides [3]: 0.4; Rabbit serum looped peptides [3]: 0.0 |
